Measured values from US10689359B2, “Crystals of quinazoline derivative and preparation method therefor” (Xuanzhu Pharma Co., Ltd., priority 2015, dated 2020).

Tests used:
[1] = Comparison of stability between crystal forms and amorphous form, 60° C. uncovered, relevant substances by HPLC; type: physicochemical
Method: Instrument: High Performance Liquid Chromatographic Instrument (Agilent 1260 series) Chromatographic column: chromatographic column using octylsilane chemically bonded silica as filler (HC-C8, 4.6×250 mm, 5 μm) Column temperature: 30° C. Detection wavelength: 230 nm Mobile phase: Mobile phase consisting of 0.06 mol/L sodium dihydrogen phosphate/0.06 mol/L sodium perchlorate solution-acetonitrile, and reversed-phase gradient elution was employed. Flow rate: 1.0 mL/min Injection volume: 10 μL

[2] = Evaluation on pharmacokinetics in SD rats, intragastric administration; type: in vivo; details: 5 mg/kg
Method: An amorphous form of a compound of Formula (I), the preparation method of which could be found in the particular Examples as disclosed in the international patent application (Publication No. WO 2012027960 A1).
Test animal: SD rats, male, weighed 190-250 g, 6 rats for each crystal form, purchased from Beijing Vital River Laboratory Animal Technology Co., Ltd.
Administration route: intragastric administration, at an administration dose of 5 mg/kg, and an administration volume of 10 mL/kg.
Blood collection: whole blood (about 100 μL) was collected from tail vein 10 min, 30 min, 1 h, 2 h, 4 h, 6 h, 8 h, and 24 h after administration, and added to K2EDTA-containing anticoagulation tubes. The whole blood sample was centrifuged for 6 min at 4° C., 8000 rpm in a high speed centrifuge, and plasma was separated. Plasma needed to be prepared within 30 min after blood collection, and stored at −80° C. in a refrigerator.
Plasma sample analysis: the plasma samples were analyzed by protein precipitation: to plasma (20 μL), an internal standard Gefitinib (200 μL, 50 ng/mL acetonitrile solution) was added; the resultant mixture was vortexed at 500 rpm for 5 min, and centrifuged at 4000 rpm for 20 min in a high speed centrifuge; to the supernatant (100 μL), water (100 μL) was added; the resultant mixture was mixed homogeneously under vortexing and analyzed by LC-MS/MS for blood concentration.
Calculation for PK parameters: PK parameters were calculated by using Pharsight Phoenix 6.2 software.

SMILES: C=CC(=O)Nc1cc2c(Nc3ccc(F)c(Cl)c3)ncnc2cc1OCC1CC2(CCN(C)CC2)C1 [Amorphous form, N-(4-((3-chloro-4-fluorophenyl)amino)-7-((7-methyl-7-azaspiro[3.5]nonan-2-yl)methoxy)quinazolin-6-yl)acrylamide]
- Total relevant substances ([1]; 0 day): 1.1%
- Change in total relevant substances (conclusion) ([1]; 60° C. uncovered, 5 days and 10 days): rapid increase in total relevant substances
- Increase of total relevant substances ([1]; 60° C. uncovered, 5 days vs Day 0): 1.3%
- Increase of total relevant substances ([1]; 60° C. uncovered, 10 days vs Day 0): 2.1%
- Total relevant substances ([1]; 60° C. uncovered-5 days): 2.4%
- Total relevant substances ([1]; 60° C. uncovered-10 days): 3.2%
- Cmax and exposure amount (AUC) compared with Crystal form I, II and III [2]: significantly lower
- In vivo half-life compared with Crystal form I, II and III [2]: shorter
- AUC(0-inf) ([2]; male, SD, rat, plasma, po, suspension in water): 1150 ng·h/mL
- AUC0-t ([2]; male, SD, rat, plasma, po, suspension in water, read-out: AUC0-t): 1140 ng·h/mL
- Cmax ([2]; male, SD, rat, plasma, po, suspension in water, read-out: Cmax (maximum blood concentration)): 105 ng/mL
- half-life ([2]; male, SD, rat, plasma, po, suspension in water, read-out: T1/2 (drug elimination half-life) (converted)): 3.08 h
- Tmax ([2]; male, SD, rat, plasma, po, suspension in water, read-out: Tmax (time to maximum blood concentration)): 4 h
